Data published in PubChem BioAssay (NCI).
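How tested: cells in 96-well plates exposed to compound for 48 hours at five concentrations. Here, GI50 denotes the concentration required for 50% inhibition of growth. TGI denotes the concentration required for complete inhibition of growth.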

Key:
Experiment in all cases: inhibition of tumour cell growth, NCI panel, 48 h
MDA-MB-468 breast = tested on: MDA-MB-468 breast
786-0 renal = tested on: 786-0 renal
A498 renal = tested on: A498 renal
A549 NSCLC = tested on: A549 NSCLC
ACHN renal = tested on: ACHN renal
BT-549 breast = tested on: BT-549 breast
CAKI-1 renal = tested on: CAKI-1 renal
CCRF-CEM leukemia = tested on: CCRF-CEM leukemia
DU-145 prostate = tested on: DU-145 prostate
EKVX NSCLC = tested on: EKVX NSCLC
HCC-2998 colon = tested on: HCC-2998 colon
HCT-116 colon = tested on: HCT-116 colon
HCT-15 colon = tested on: HCT-15 colon
HL-60(TB) leukemia = tested on: HL-60(TB) leukemia
HOP-62 NSCLC = tested on: HOP-62 NSCLC
HOP-92 NSCLC = tested on: HOP-92 NSCLC
HS 578T breast = tested on: HS 578T breast
HT29 colon = tested on: HT29 colon
IGROV1 ovarian = tested on: IGROV1 ovarian
K-562 leukemia = tested on: K-562 leukemia
KM12 colon = tested on: KM12 colon
LOX IMVI melanoma = tested on: LOX IMVI melanoma
M14 melanoma = tested on: M14 melanoma
MCF7 breast = tested on: MCF7 breast
MDA-MB-231 breast = tested on: MDA-MB-231 breast
MDA-MB-435 = tested on: MDA-MB-435
MOLT-4 leukemia = tested on: MOLT-4 leukemia
NCI-H226 lung = tested on: NCI-H226 lung
NCI-H23 lung = tested on: NCI-H23 lung
NCI-H460 lung = tested on: NCI-H460 lung
NCI/ADR-RES ovarian = tested on: NCI/ADR-RES ovarian
OVCAR-3 ovarian = tested on: OVCAR-3 ovarian
OVCAR-4 ovarian = tested on: OVCAR-4 ovarian
OVCAR-5 ovarian = tested on: OVCAR-5 ovarian
OVCAR-8 ovarian = tested on: OVCAR-8 ovarian
PC-3 prostate = tested on: PC-3 prostate
RPMI-8226 leukemia = tested on: RPMI-8226 leukemia
RXF 393 renal = tested on: RXF 393 renal
SF-268 CNS = tested on: SF-268 CNS
SF-295 CNS = tested on: SF-295 CNS
SF-539 CNS = tested on: SF-539 CNS
SK-MEL-2 melanoma = tested on: SK-MEL-2 melanoma
SK-MEL-28 melanoma = tested on: SK-MEL-28 melanoma
SK-MEL-5 melanoma = tested on: SK-MEL-5 melanoma
SK-OV-3 ovarian = tested on: SK-OV-3 ovarian
SN12C renal = tested on: SN12C renal
SNB-19 CNS = tested on: SNB-19 CNS
SNB-75 CNS = tested on: SNB-75 CNS
SR leukemia = tested on: SR leukemia
SW-620 colon = tested on: SW-620 colon
T-47D breast = tested on: T-47D breast
TK-10 renal = tested on: TK-10 renal
U251 CNS = tested on: U251 CNS
UACC-257 melanoma = tested on: UACC-257 melanoma
UO-31 renal = tested on: UO-31 renal

Work on `CCc1nc(N)nc(N)c1C#CC(C)c1cc(-c2ccnc(C)c2)c2oc(C)nc2c1` (stereo not given) yielded a GI50 (MDA-MB-468 breast) of 0.103 µM and a TGI (MDA-MB-468 breast) of 3 µM.
For `CC1=NN(C(=O)c2nn(-c3ccc(Cl)cc3)cc2O)C(=O)C1`, the GI50 (MDA-MB-468 breast) was 4.92 µM and the TGI (MDA-MB-468 breast) was 97 µM.
`COc1cc2nc(N3CCC[C@@H](NC4=CC(=O)c5ccccc5C4=O)C3)nc(N)c2cc1OC` was tested, and the GI50 (MDA-MB-468 breast) was 1.81 µM and the TGI (MDA-MB-468 breast) was 3.77 µM.
Compound `COc1cc2c3c(n(CCCNCC4CC4)c(=O)c2cc1OC)-c1cc2c(cc1C3=O)OCO2` has a GI50 (MDA-MB-468 breast) of 1.54 µM and a TGI (MDA-MB-468 breast) of 9.66 µM.
For `O=C(Cn1c2ccccc2c2ccncc21)N/N=C\c1ccc2ccccc2c1`, the GI50 (MDA-MB-468 breast) was 24.4 µM and the TGI (MDA-MB-468 breast) was 65.5 µM.
Compound `C=C1C(=O)O[C@H]2[C@H]1CC/C(CNC(=O)/C=C/c1ccc(Cl)cc1Cl)=C\CC[C@@]1(C)O[C@@H]21` has a GI50 (MDA-MB-468 breast) of 0.396 µM and a TGI (MDA-MB-468 breast) of 1.47 µM.
`COC(=O)Nc1nc2ccc(S(=O)(=O)c3ccc(NC(=O)Nc4cc(C(F)(F)F)ccc4F)cc3)cc2[nH]1` gave a GI50 (MDA-MB-468 breast) of over 25 µM and a TGI (MDA-MB-468 breast) of over 25 µM.
Work on `Cc1ccc(-c2c3c(N)c4c(nc3nc3c2c(C)nn3-c2ccccc2)CCC4)cc1` yielded a GI50 (MDA-MB-468 breast) of 1.97 µM and a TGI (MDA-MB-468 breast) of 5.15 µM.
With `Nc1ccc(-c2nnc(SCc3ccc(O)c4ncccc34)n2-c2ccccc2)cc1` the GI50 (MDA-MB-468 breast) was 0.0358 µM and the TGI (MDA-MB-468 breast) was 1.85 µM.
`O=c1[nH]nc(-c2ccccc2)c2c(-c3ccccc3)onc12` was tested, and the GI50 (MDA-MB-468 breast) was 0.424 µM and the TGI (MDA-MB-468 breast) was over 100 µM.
Work on `CN(C)N=Nc1nn(C(=O)Nc2ccc(Cc3ccccc3)cc2)c2ccccc12` yielded a GI50 (MDA-MB-468 breast) of 2.94 µM and a TGI (MDA-MB-468 breast) of over 100 µM.
In the case of `O=C1COCCN1c1ccc(NCc2cn(C(=O)c3ccc(Cl)cc3)c3ccccc23)cc1`, the GI50 (MDA-MB-468 breast) was 0.101 µM and the TGI (MDA-MB-468 breast) was 0.286 µM.
Compound `CCCN(CCC)S(=O)(=O)c1ccc(C(=O)O)cc1.CCCN(CCC)S(=O)(=O)c1ccc(C(=O)O)cc1.[Cl][Pt+2][Cl].[NH2-].[NH2-]` has a GI50 (786-0 renal) of 1.44 µM, a TGI (786-0 renal) of over 100 µM and a GI50 (A498 renal) of 29.6 µM. It also gave a TGI (A498 renal) of over 85.4 µM, a GI50 (A549 NSCLC) of 2.89 µM and a TGI (A549 NSCLC) of over 100 µM. For the same compound, the GI50 (ACHN renal) was 0.477 µM, the TGI (ACHN renal) was over 100 µM and the GI50 (BT-549 breast) was 0.369 µM. For the same compound, the TGI (BT-549 breast) was 1.9 µM, the GI50 (CAKI-1 renal) was 2.27 µM and the TGI (CAKI-1 renal) was over 100 µM. The GI50 (CCRF-CEM leukemia) was 0.138 µM, the GI50 (DU-145 prostate) was 0.351 µM and the TGI (DU-145 prostate) was over 100 µM. The GI50 (EKVX NSCLC) was 8.4 µM, the TGI (EKVX NSCLC) was over 100 µM and the GI50 (HCC-2998 colon) was 0.926 µM. For the same compound, the TGI (HCC-2998 colon) was 9.49 µM, the GI50 (HCT-116 colon) was 0.945 µM and the TGI (HCT-116 colon) was over 52 µM. For the same compound, the GI50 (HCT-15 colon) was over 100 µM, the TGI (HCT-15 colon) was over 100 µM and the GI50 (HL-60(TB) leukemia) was 0.221 µM. For the same compound, the TGI (HL-60(TB) leukemia) was over 100 µM, the GI50 (HOP-62 NSCLC) was 0.653 µM and the TGI (HOP-62 NSCLC) was over 95 µM. It also gave a GI50 (HOP-92 NSCLC) of 0.596 µM, a TGI (HOP-92 NSCLC) of over 21.8 µM and a GI50 (HS 578T breast) of 13.9 µM. It also gave a TGI (HS 578T breast) of over 100 µM, a GI50 (HT29 colon) of 2.76 µM and a TGI (HT29 colon) of over 100 µM. It also gave a GI50 (IGROV1 ovarian) of 3.6 µM, a TGI (IGROV1 ovarian) of 24.2 µM and a GI50 (K-562 leukemia) of 0.179 µM. It also gave a TGI (K-562 leukemia) of over 100 µM, a GI50 (KM12 colon) of 2.61 µM and a TGI (KM12 colon) of over 100 µM. The GI50 (LOX IMVI melanoma) was 0.349 µM, the TGI (LOX IMVI melanoma) was over 45.2 µM and the GI50 (M14 melanoma) was 1 µM. The TGI (M14 melanoma) was over 100 µM, the GI50 (MCF7 breast) was 0.149 µM and the TGI (MCF7 breast) was over 100 µM. The GI50 (MDA-MB-231 breast) was 3.15 µM, the TGI (MDA-MB-231 breast) was over 58.3 µM and the GI50 (MDA-MB-435) was 0.801 µM. The TGI (MDA-MB-435) was 2.72 µM, the GI50 (MOLT-4 leukemia) was 0.246 µM and the TGI (MOLT-4 leukemia) was over 100 µM. It also gave a GI50 (NCI-H226 lung) of 4.04 µM, a TGI (NCI-H226 lung) of 99.6 µM and a GI50 (NCI-H23 lung) of 0.249 µM. It also gave a TGI (NCI-H23 lung) of 2.81 µM, a GI50 (NCI-H460 lung) of 0.151 µM and a TGI (NCI-H460 lung) of over 68.6 µM. For the same compound, the GI50 (NCI/ADR-RES ovarian) was over 100 µM, the TGI (NCI/ADR-RES ovarian) was over 100 µM and the GI50 (OVCAR-3 ovarian) was 1.07 µM. For the same compound, the TGI (OVCAR-3 ovarian) was over 27 µM, the GI50 (OVCAR-4 ovarian) was 4.57 µM and the TGI (OVCAR-4 ovarian) was over 100 µM. For the same compound, the GI50 (OVCAR-5 ovarian) was 1.44 µM, the TGI (OVCAR-5 ovarian) was over 100 µM and the GI50 (OVCAR-8 ovarian) was 1.4 µM. It also gave a TGI (OVCAR-8 ovarian) of over 100 µM, a GI50 (PC-3 prostate) of 2.25 µM and a TGI (PC-3 prostate) of over 100 µM. It also gave a GI50 (RPMI-8226 leukemia) of 0.289 µM, a GI50 (RXF 393 renal) of 0.425 µM and a TGI (RXF 393 renal) of 5.08 µM. It also gave a GI50 (SF-268 CNS) of 0.7 µM, a TGI (SF-268 CNS) of over 100 µM and a GI50 (SF-295 CNS) of 1.64 µM. It also gave a TGI (SF-295 CNS) of over 100 µM, a GI50 (SF-539 CNS) of 0.289 µM and a TGI (SF-539 CNS) of over 33.2 µM. For the same compound, the GI50 (SK-MEL-2 melanoma) was 2.03 µM, the TGI (SK-MEL-2 melanoma) was 5.21 µM and the GI50 (SK-MEL-28 melanoma) was 0.733 µM. It also gave a TGI (SK-MEL-28 melanoma) of over 24.1 µM, a GI50 (SK-MEL-5 melanoma) of 0.476 µM and a TGI (SK-MEL-5 melanoma) of 1.8 µM. It also gave a GI50 (SK-OV-3 ovarian) of 1.58 µM, a TGI (SK-OV-3 ovarian) of 22 µM and a GI50 (SN12C renal) of 0.2 µM. For the same compound, the TGI (SN12C renal) was over 100 µM, the GI50 (SNB-19 CNS) was 1.6 µM and the TGI (SNB-19 CNS) was 60.5 µM. It also gave a GI50 (SNB-75 CNS) of 0.666 µM, a TGI (SNB-75 CNS) of 13.3 µM and a GI50 (SR leukemia) of 0.112 µM. It also gave a TGI (SR leukemia) of over 100 µM, a GI50 (SW-620 colon) of 0.518 µM and a TGI (SW-620 colon) of over 100 µM. For the same compound, the GI50 (T-47D breast) was 0.349 µM, the TGI (T-47D breast) was over 100 µM and the GI50 (TK-10 renal) was over 100 µM. For the same compound, the TGI (TK-10 renal) was over 100 µM, the GI50 (U251 CNS) was 0.995 µM and the TGI (U251 CNS) was over 84.2 µM. For the same compound, the GI50 (UACC-257 melanoma) was 2.13 µM, the TGI (UACC-257 melanoma) was over 100 µM and the GI50 (UO-31 renal) was over 72.6 µM. The TGI (UO-31 renal) was over 100 µM.
